Our source for the Activity and IC50 values is ChEMBL document CHEMBL1138436, “Biological activity and chemistry of taxoids from the Japanese yew, Taxus cuspidata” (J Nat Prod, 2004).

In brackets after ≈: the same amount, converted by molar mass.

Tested on in the first assay: not listed separately
Description: Reversal of multidrug resistance in human 2780AD cells assessed as increase in vincristine accumulation relative to verapamil. The format is functional, A2780 ADR. The arrangement: concentration or dose not given beside the values.
Regarding `C=C1[C@@H](OC(=O)CCc2ccccc2)CC[C@@]2(C)[C@@H](OC(C)=O)[C@H](OC(C)=O)C3=C(C)C(=O)C[C@@H]([C@@H](OC(C)=O)[C@H]12)C3(C)C`, the Activity was 227%. With `CC(=O)O[C@@H]1[C@@H]2CC(=O)C(C)=C([C@@H](OC(C)=O)[C@H](OC(C)=O)[C@]3(C)CC[C@H](O)[C@]4(CO4)[C@@H]13)C2(C)C`, the Activity was found to be 28%. Regarding `CC[Si](CC)(CC)O[C@H]1CC[C@@]2(C)[C@@H](OC(C)=O)[C@H](OC(C)=O)C3=C(C)C(=O)C[C@@H]([C@@H](OC(C)=O)[C@@H]2[C@@]12CO2)C3(C)C`, the Activity was 101%. On to `C=C1[C@@H](OCOCc2ccccc2)CC[C@@]2(C)[C@@H](OC(C)=O)[C@H](OC(C)=O)C3=C(C)C(=O)C[C@@H]([C@@H](OC(C)=O)[C@H]12)C3(C)C`, for which the Activity was found to be 150%. The same measure, in the same setting: in the case of `C=C1[C@@H](O)CC[C@@]2(C)[C@@H](OC(C)=O)[C@H](OC(C)=O)C3=C(C)[C@@H](O)C[C@@H]([C@@H](OC(C)=O)[C@H]12)C3(C)C` it was 28%; in that of `C=C1[C@@H](OC(=O)/C=C/c2ccccc2)CC[C@@]2(C)[C@@H](OC(=O)/C=C/c3ccccc3)[C@H](OC(=O)/C=C/c3ccccc3)C3=C(C)C(=O)C[C@@H]([C@@H](OC(C)=O)[C@H]12)C3(C)C`, 28%. Regarding `C=C1[C@@H](OC(=O)/C=C/c2ccccc2)CC[C@@]2(C)[C@@H](OC(=O)c3ccccc3)[C@H](OC(=O)c3ccccc3)C3=C(C)C(=O)C[C@@H]([C@@H](OC(C)=O)[C@H]12)C3(C)C`, the Activity is listed as 28%. On the same count and under the same terms, in the case of `C=C1[C@@H](O)CC[C@@]2(C)[C@@H](OC(C)=O)[C@H](OC(C)=O)C3=C(C)[C@@H](OC(=O)c4ccccc4)C[C@@H]([C@@H](OC(C)=O)[C@H]12)C3(C)C` it was 87%; in that of `C=C1[C@@H](O)CC[C@@]2(C)[C@@H](OC(C)=O)[C@H](OC(C)=O)C3=C(C)[C@@H](OC(=O)/C=C/c4ccccc4)C[C@@H]([C@@H](OC(C)=O)[C@H]12)C3(C)C`, 95%. Same read-out and setting: the value for `C=C1[C@@H](OC(=O)c2ccccc2)CC[C@@]2(C)[C@@H](OC(C)=O)[C@H](OC(C)=O)C3=C(C)[C@@H](O)C[C@@H]([C@@H](OC(C)=O)[C@H]12)C3(C)C` was 88%; that for `C=C1[C@@H](O)CC[C@@]2(C)[C@@H](OC(C)=O)[C@H](OC(C)=O)C3=C(C)C(=O)C[C@@H]([C@@H](OC(=O)/C=C/c4ccccc4)[C@H]12)C3(C)C` was 98%; that for `C=C1[C@@H](O[Si](CC)(CC)CC)CC[C@@]2(C)[C@@H](OC(C)=O)[C@H](OC(C)=O)C3=C(C)C(=O)C[C@@H]([C@@H](OC(C)=O)[C@H]12)C3(C)C` was 91%. As for `C=C1[C@@H](OC(=O)c2ccccc2)CC[C@@]2(C)[C@@H](OC(C)=O)[C@H](OC(C)=O)C3=C(C)C(=O)C[C@@H]([C@@H](OC(C)=O)[C@H]12)C3(C)C`, the Activity worked out at 87%.

For the molecule `C=C1[C@@H](OC(=O)c2ccccc2)CC[C@@]2(C)[C@@H](OC(=O)c3ccccc3)[C@H](OC(=O)c3ccccc3)C3=C(C)C(=O)C[C@@H]([C@@H](OC(C)=O)[C@H]12)C3(C)C`, the Activity came out at 28%. The same measure, in the same setting: the value for `C=C1[C@@H](O)CC[C@@]2(C)[C@@H](OC(C)=O)[C@H](OC(C)=O)C3=C(C)[C@H](O)C[C@@H]([C@@H](OC(C)=O)[C@H]12)C3(C)C` was 28%; that for `CC[Si](CC)(CC)O[C@H]1CC[C@@]2(C)[C@@H](OC(C)=O)[C@H](OC(C)=O)C3=C(C)C(=O)C[C@@H]([C@@H](OC(C)=O)[C@@H]2[C@]12CO2)C3(C)C` was 102%.

For the molecule `CC(=O)O[C@@H]1[C@@H]2CC(=O)C(C)=C([C@@H](OC(C)=O)[C@H](OC(C)=O)[C@]3(C)CC[C@H](OC(=O)/C=C/c4ccccc4)[C@@]4(CO4)[C@@H]13)C2(C)C`, the Activity is reported as 139%. Same read-out and setting: the value for `C=C1[C@@H](OC(=O)/C=C/c2ccccc2)CC[C@@]2(C)[C@@H](OC(=O)/C=C/c3ccccc3)[C@H](OC(=O)/C=C/c3ccccc3)C3=C(C)C(=O)C[C@@H]([C@@H](OC(=O)/C=C/c4ccccc4)[C@H]12)C3(C)C` was 28%; that for `CC(=O)O[C@@H]1[C@@H]2CC(=O)C(C)=C([C@@H](OC(C)=O)[C@H](OC(C)=O)[C@]3(C)CC[C@H](O)[C@@]4(CO4)[C@@H]13)C2(C)C` was 28%; that for `C=C1[C@@H](OC(=O)C[C@H](c2ccccc2)N(C)C)C[C@H](OC(C)=O)[C@]2(C)[C@@H]1C[C@@H]1C[C@H](OC(C)=O)C(C)=C([C@@H](OC(C)=O)[C@@H]2OC(C)=O)C1(C)C` was 114%.

`C=C1[C@@H](OC(=O)/C=C/c2ccccc2)CC[C@@]2(C)[C@@H](OC(C)=O)[C@H](OC(C)=O)C3=C(C)[C@@H](OC(=O)/C=C/c4ccccc4)C[C@@H]([C@@H](OC(C)=O)[C@H]12)C3(C)C`: the Activity stood at 28%.

With `C=C1[C@@H](OC(=O)C[C@H](c2ccccc2)N(C)C)CC[C@]2(C)[C@@H]1C[C@@H]1C[C@H](OC(C)=O)C(C)=C([C@@H](OC(C)=O)[C@@H]2OC(C)=O)C1(C)C`, the Activity amounted to 119%. On the same count and under the same terms, the value for `C=C1[C@@H](OC(=O)c2ccccc2)CC[C@@]2(C)[C@@H](OC(C)=O)[C@H](OC(C)=O)[C@@]34[C@H](C)C(=O)C[C@@H]([C@@H](OC(C)=O)[C@@]132)C4(C)C` was 125%; that for `C=C1[C@@H](OC(=O)/C=C/c2ccccc2)CC[C@@]2(C)[C@H]3OC(C)(C)O[C@@H]3C3=C(C)C(=O)C[C@@H]([C@@H](OC(=O)c4ccccc4)[C@H]12)C3(C)C` was 28%.

On to `C=C1[C@@H](OC(=O)/C=C/c2ccccc2)CC[C@@]2(C)[C@H]3OC(C)(C)O[C@@H]3C3=C(C)C(=O)C[C@@H]([C@@H](OC(=O)/C=C/c4ccccc4)[C@H]12)C3(C)C`, for which the Activity is 28%. Consider `C=C1[C@@H](OC(=O)/C=C/c2ccccc2)C[C@H](OC(C)=O)[C@]2(C)[C@@H]1C[C@@H]1C[C@H](OC(C)=O)C(C)=C([C@@H](OC(C)=O)[C@@H]2OC(C)=O)C1(C)C`, for which the Activity is given as 108%.

`C=C1[C@@H](OC(=O)/C=C/c2ccccc2)C[C@H](OC(C)=O)[C@]2(C)[C@@H]1C[C@@H]1C[C@H](O)C(C)=C([C@@H](OC(C)=O)[C@@H]2OC(C)=O)C1(C)C` [TAXEZOPIDINE H]: the Activity was 106%. Same read-out and setting: in the case of `C=C1[C@@H](OC(=O)C[C@H](c2ccccc2)N(C)C)CC[C@@]2(C)[C@@H](OC(C)=O)[C@H](OC(C)=O)C3=C(C)C(=O)C[C@@H]([C@@H](OC(C)=O)[C@H]12)C3(C)C` [TAXINE II] it was 95%; in that of `CC(=O)O[C@H]1C[C@H]2[C@@H](OC(C)=O)/C=C3\C[C@](C)(C(=O)[C@H](O)C(=C1C)C2(C)C)[C@@H](OC(C)=O)C[C@@H]3OC(=O)/C=C/c1ccccc1` [TAXUSPINE B], 96%. As for `C=C1[C@@H](OC(=O)/C=C/c2ccccc2)CC[C@@]2(C)[C@@H](OC(C)=O)[C@H](OC(C)=O)[C@@]34[C@H](C)C(=O)C[C@@H]([C@@H](OC(C)=O)[C@@]132)C4(C)C` [TAXUSPINE C], the Activity came out at 104%. As for `C=C1[C@@H](OC(=O)/C=C/c2ccccc2)C[C@H](OC(C)=O)[C@]2(C)[C@@H]1C[C@]1(C(C)(C)O)C[C@H](OC(C)=O)C(C)=C1[C@@H](OC(C)=O)[C@@H]2OC(C)=O` [TAXUSPINE J], the Activity is recorded as 114%. On the same count and under the same terms, in the case of `CC(=O)OC/C1=C\[C@H](OC(C)=O)[C@@H]2C[C@H](OC(C)=O)C(C)=C([C@@H](O)/C(OC(C)=O)=C(\C)[C@@H](OC(C)=O)C[C@@H]1OC(=O)/C=C/c1ccccc1)C2(C)C` [TAXUSPINE X] it was 105%; in that of `C=C1[C@@H](OC(=O)C[C@H](c2ccccc2)N(C)C)CC[C@@]2(C)[C@@H](OC(C)=O)[C@H](OC(C)=O)C3=C(C)[C@@H](OC(C)=O)C[C@@H]([C@@H](O)[C@H]12)C3(C)C` [TAXUSPINE Z], 106%.

In a further assay the test system is KB. Description: Cytotoxicity against human KB cells. The format is functional, cell-based.
`C=C1[C@@H](O)CC[C@@]2(C)[C@@H](OC(C)=O)[C@H](OC(C)=O)C3=C(C)C(=O)C[C@@](O)([C@@H](OC(C)=O)[C@H]12)C3(C)C` yielded an IC50 of 80 ng/mL (≈ 162 nM).

`CC(=O)O[C@@]12CO[C@@H]1C[C@H](O)[C@@]1(C)C(=O)[C@H](O)C3=C(C)[C@@H](OC(=O)[C@H](O)[C@@H](NC(=O)c4ccccc4)c4ccccc4)C[C@@](O)([C@@H](OC(=O)c4ccccc4)[C@H]21)C3(C)C` showed an IC50 of 1.5 ng/mL (≈ 1.85 nM). On the same count and under the same terms, in the case of `C/C=C(\C)C(=O)N[C@@H](c1ccccc1)[C@@H](O)C(=O)O[C@H]1C[C@@]2(O)[C@@H](OC(=O)c3ccccc3)[C@@H]3[C@]4(OC(C)=O)CO[C@@H]4C[C@H](O)[C@@]3(C)C(=O)[C@H](O)C(=C1C)C2(C)C` it was 1.5 ng/mL (≈ 1.9 nM). Same read-out and setting: in the case of `CC(=O)O[C@@]12CO[C@@H]1C[C@@H](O)[C@@]1(C)C(=O)[C@H](O)C3=C(C)[C@@H](OC(=O)[C@H](O)[C@@H](NC(=O)c4ccccc4)c4ccccc4)C[C@@](O)([C@@H](OC(=O)c4ccccc4)[C@H]21)C3(C)C` it was 1.5 ng/mL (≈ 1.85 nM); in that of `CC(=O)O[C@H]1C(=O)[C@]2(C)[C@H](O)C[C@H]3OC[C@@]3(OC(C)=O)[C@H]2[C@H](OC(=O)c2ccccc2)[C@]2(O)C[C@H](OC(=O)[C@H](O)[C@@H](NC(=O)c3ccccc3)c3ccccc3)C(C)=C1C2(C)C`, 1.5 ng/mL (≈ 1.76 nM). Same read-out and setting: in the case of `CCCCCC(=O)N[C@@H](c1ccccc1)[C@@H](O)C(=O)O[C@H]1C[C@@]2(O)[C@@H](OC(=O)c3ccccc3)[C@@H]3[C@]4(OC(C)=O)CO[C@@H]4C[C@H](O)[C@@]3(C)C(=O)[C@H](O)C(=C1C)C2(C)C` [10-DEACETYLTAXAYUNNANINE A] it was 1.5 ng/mL (≈ 1.86 nM); in that of `C=C1[C@H]2C[C@]3(C(C)(C)O)C[C@H](O)C(C)=C3[C@@H](OC(=O)c3ccccc3)[C@H](OC(C)=O)[C@]2(C)[C@@H](OC(C)=O)C[C@@H]1O` [BREVIFOLIOL], 80 ng/mL (≈ 144 nM).

In turn, `C/C=C(\C)C(=O)N[C@@H](c1ccccc1)[C@@H](O)C(=O)O[C@H]1C[C@@]2(O)[C@@H](OC(=O)c3ccccc3)[C@@H]3[C@]4(OC(C)=O)CO[C@@H]4C[C@H](O)[C@@]3(C)C(=O)[C@H](OC(C)=O)C(=C1C)C2(C)C` [CEPHALOMANNINE] yielded an IC50 of 1.5 ng/mL (≈ 1.8 nM).
